Measured values: patent US20020119979A1, “Acyclic compounds and methods for treating multidrug resistance” (priority 2000, published 2002)

Test system: NIH-MDR1-G185 cells
Test: Fluorescent substrate (BODIPY-FL Taxol) accumulation assay
Type: cell-based
Conditions: BODIPY-FL taxol 500 nM, MDR modulator 10 micromolar, 40 min at 37° C.; fluorescence in NIH-MDR1-G185 cells in presence / absence of modulator
Procedure: Fluorescent Substrate Accumulation Assay
NIH-MDR1-GI 85 cells (obtained from M. Gottesman, NI1H) were harvested and resuspended in RPMI-1640 containing L-glutamine, 10% Cosmic Calf Serum and penicillin-streptomycin. Cell suspension aliquots of 175 microliters (1×10^5 cells) were added to individual wells of a 96 well microtiter plate and preincubated for 15 min at 37° C. with 20 microliters MDR modulator diluted in cell culture media to give a final concentration of 10 micromolar. Control wells received no modulating agent. BODIPY-FL Taxol (Molecular Probes, Eugene, Oreg.) was added to each well in 10 microliter aliquots to give a final concentration of 500 nM and cells were incubated for 40 min at 37° C. Cells were centrifuged at 100× g for 5 min at 4° C. and the cell pellet washed with 200 microliters cold PBS to remove fluorescent medium from wells. Cells were centrifuged once more, media removed, and cells resuspended in 200 microliters cold PBS. Fluorescence accumulation was measured in a fluorescence plate reader fitted with an excitation filter of 485 nm and an emission filter of 538 nm. BODIPY-FL taxol accumulation in the cells was calculated as follows:
Accumulation Index=(fluorescence in NIH-MDR1-G185 cells in the presence of modulator)/(fluorescence in NIH-MDR1-G185 cells in absence of modulator) […]

O=C(CCCNC[C@@H](O)COc1cccc2ncccc12)NC(CCCc1ccccc1)CCCc1ccccc1 [Example 25, N-{1-[2-(R)-Hydroxy-3-(quinolin-5-yloxy)-propyl]}-4-aminobutyric acid [4-phenyl-1-(3-phenyl-propyl)-butyl]-amide]
Accumulation Index: 10
